Measured values: patent US20250206761A1, “HALOINDOLE MACROCYCLIC COMPOUNDS FOR THE TREATMENT OF CANCER” (Hoffmann-La Roche Inc., priority 2022, published 2025)
pIC50: −log10 of the molar value.

Key:
[1] = test system: NCI-H358 (ATCC-CRL5807) cells; experiment: Cell viability assay, G12C (NCI-H358); assay type: cell-based, human; details: Homo sapiens; KRAS cell viability, NCI-H358, 72 hrs, Cell Counting Kit-8
Procedure, shortened: (§1)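 After overnight attachment, cells received compounds (0.5% DMSO) for 72 hrs; viability was then quantified with CCK-8, reading OD450 minus OD650, and IC50 values were obtained from a 4-parameter concentration-response fit.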

[2] = test system: phosphorylation of ERK, KRAS G12C in NCJ-H358 cells; experiment: pERK inhibition assay, KRAS G12C; assay type: cell-based, human; details: Homo sapiens, 4 hours
Procedure, shortened: (§2)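 4 h compound treatment (0.5% DMSO final) of overnight-plated cells; formaldehyde fix, cold MeOH permeabilization, BSA block. Anti-pERK primary overnight at 4 °C, HRP anti-rabbit secondary, TMB readout at OD450. IC50 via 4-parameter sigmoidal model.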

[3] = molecular target: KRAS G12D binding to BRAF (Homo sapiens (Human), UniProt P01116+P62937, G12D); experiment: KRAS-BRAF with CYPA (500 nM) interaction assay (TR-FRET), G12D; assay type: biochemical
Chain of KRAS G12D binding to BRAF (P01116-2 other isoform, or with tags, fused parts or gaps G12D): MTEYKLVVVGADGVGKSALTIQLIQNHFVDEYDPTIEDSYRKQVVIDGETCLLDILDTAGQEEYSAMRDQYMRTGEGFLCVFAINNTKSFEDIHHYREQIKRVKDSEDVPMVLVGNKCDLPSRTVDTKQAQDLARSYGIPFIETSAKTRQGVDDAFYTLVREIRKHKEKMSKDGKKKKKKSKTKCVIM
Chain of KRAS G12D binding to BRAF (P62937 whole entry): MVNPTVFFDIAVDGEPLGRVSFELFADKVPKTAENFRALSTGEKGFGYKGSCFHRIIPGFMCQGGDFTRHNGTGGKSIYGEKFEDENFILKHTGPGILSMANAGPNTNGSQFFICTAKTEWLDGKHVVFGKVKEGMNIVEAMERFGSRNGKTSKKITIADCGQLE

[4] = molecular target: KRAS G12V binding to BRAF (Homo sapiens (Human), UniProt P01116+P62937, G12V); experiment: KRAS-BRAF with CYPA (500 nM) interaction assay (TR-FRET), G12V; assay type: biochemical
Chain of KRAS G12V binding to BRAF (P01116-2 other isoform, or with tags, fused parts or gaps G12V): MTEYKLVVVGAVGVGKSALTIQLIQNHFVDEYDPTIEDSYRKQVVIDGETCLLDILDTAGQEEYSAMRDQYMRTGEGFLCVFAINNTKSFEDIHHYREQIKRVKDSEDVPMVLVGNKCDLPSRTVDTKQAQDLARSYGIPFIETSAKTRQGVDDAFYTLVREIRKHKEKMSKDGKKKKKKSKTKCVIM
Chain of KRAS G12V binding to BRAF (P62937 whole entry): as the sequence (P62937 whole entry) above
Procedure, shortened: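 A TR-FRET assay measured how compound, in the presence of CYPA, disrupts binding of GMPPNP-loaded 6His-KRAS G12V to BRAF. The buffer contained 25 mM HEPES PH=7.4, 0.002% Tween20, 0.1% BSA, 100 mM NaCl, 5 mM MgCl2 and 10 μM GMPPNP. Compounds ran as a 16-point 3-fold dilution series from 10 μM for 3 hours.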

[5] = test system: AGS (ATCC-CRL-1739) cells; experiment: Cell viability assay, G12D (AGS); assay type: cell-based, human; details: Homo sapiens, KRAS cell viability, 72 hrs, Cell Counting Kit-8
Procedure, shortened: as §1

[6] = test system: phosphorylation of ERK, KRAS G12V in SW620; experiment: pERK inhibition assay, KRAS G12V; assay type: cell-based, human; details: Homo sapiens, SW-620, SW620, 4 hours
Procedure, shortened: as §2

[7] = test system: phosphorylation of ERK, KRAS G12D in AGS cells; experiment: pERK inhibition assay, KRAS G12D; assay type: cell-based, human; details: Homo sapiens, 4 hours
Description: This assay is to measure the ability of test compounds in inhibiting the phosphorylation of ERK, the downstream signaling of KRAS G12C in NCJ-H358 cells, KRAS G12D in AGS cells, and KRAS G12V in SW620. NCJ-H358 (ATCC-CRL5807) cells, AGS (ATCC-CRL-1739) cells, SW620 (ATCC-CCL-227) cells were all grown and maintained using RPMI-1640 medium (Thermo Fisher Scientific) with 10% fetal bovine serum and 1% penicillin/streptomycin. On the day prior to compound addition, cells were plated in tissue culture-treated 96 well plates (Corning-3699) at a density of 30,000 cell/well, 20,000 cell/well, 30,000 cell/well for NCJ-H358, AGS and SW620 respectively, and allowed for attachment overnight. Diluted compounds were then added in a final concentration of 0.5% DMSO. After 4 hours of incubation, the medium was removed, 100 μL of 4% formaldehyde was added, and the assay plates were incubated at room temperature for 20 minutes. The plates were then washed once with phosphate buffered saline (PBS), and permeabilized with 100 μL of chilled methanol for 10 minutes. Non-specific antibody binding to the plates was blocked using 50 μL 1×BSA blocking buffer (Thermo-37520, 10-fold dilution by Phosphate-Buffered Saline Tween (PBST) for at least 1 hour at room temperature.
The amount of phosphor-ERK was determined using an antibody specific for phosphorylated form of ERK. Primary antibody (pERK, CST-4370, Cell Signaling Technology) was diluted 1:300 in blocking buffer, with 50 μL aliquoted to each well, and incubated overnight at 4′° C. Cells was washed five times for 5 minutes with PBST. Secondary antibody ([…] anti-rabbit IgG, CST-7074, Cell Signaling Technology) was diluted 1:1000 in blocking buffer, and 50 μL was added to each well and incubated 1-2 hrs at room temperature. Cells was washed 5 times for 5 minutes with PBST, 100 μL TMB ELISA substrate (abcam-ab171523) were added and gently shake for 20 minutes. 50 μL stop solution (abcam-ab171529) were added, and then read the signal (OD450) by EnVision.
IC50 was determined by fitting a 4-parameter sigmoidal concentration response model.

SW620 (ATCC-CCL-227) = experiment: Cell viability assay, G12V (SW620); assay type: cell-based, human; details: Homo sapiens, SW-620; KRAS cell viability, SW620, 72 hrs, Cell Counting Kit-8
Procedure, shortened: as §1

KRAS G12C-BRAF complex = KRAS G12C-BRAF complex (Homo sapiens (Human), UniProt P01116+P62937, G12C); experiment: KRAS-BRAF with CYPA (500 nM) interaction assay (TR-FRET), G12C; assay type: biochemical
Chain of KRAS G12C-BRAF complex (P01116-2 other isoform, or with tags, fused parts or gaps G12C): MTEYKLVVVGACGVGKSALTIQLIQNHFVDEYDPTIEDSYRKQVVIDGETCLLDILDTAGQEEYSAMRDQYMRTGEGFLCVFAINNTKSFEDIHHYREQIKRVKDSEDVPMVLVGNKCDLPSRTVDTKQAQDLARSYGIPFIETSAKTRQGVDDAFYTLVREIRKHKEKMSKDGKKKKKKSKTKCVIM
Chain of KRAS G12C-BRAF complex (P62937 whole entry): as the sequence (P62937 whole entry) above

SMILES | pIC50 [1] | pIC50 [2] | pIC50 [3] | pIC50 [4] | pIC50 [5] | pIC50 [6] | pIC50 [7] | pIC50 (SW620 (ATCC-CCL-227)) | pIC50 (KRAS G12C-BRAF complex)
CO[C@@H](C)c1ncc(N2CCN(CC(F)(F)F)CC2)cc1-c1c2c3cc(c(F)cc3n1CC(F)(F)F)-c1csc(n1)C[C@H](NC(=O)[C@H](C(C)C)N(C)C(=O)[C@H]1CCN(C(=O)[C@H](F)Cl)C1)C(=O)N1CCC[C@H](N1)C(=O)OCC(C)(C)C2 (atropisomer, axis not shown; (M)) [Example 26, (3S)-1-[(2R)-2-chloro-2-fluoro-acetyl]-N-[(1S)-1-[[(7S,13S)-24-fluoro-(20M)-20-[2-[(1S)-1-methoxyethyl]-5-[4-(2,2,2-trifluoroethyl)piperazin-1-yl]-3-pyridyl]-17,17-dimethyl-8,14-dioxo-21-(2,2,2-trifluoroethyl)-15-oxa-4-thia-9,21,27,28-tetrazapentacyclo[17.5.2.1^2,5.1^9,13.0^22,26]octacosa-1(25),2,5(28),19,22(26),23-hexaen-7-yl]carbamoyl]-2-methyl-propyl]-N-methyl-pyrrolidine-3-carboxamide] | 9.00 | 8.15 | < 5.00 | 6.02 | 6.59 | 7.85 | 7.82 | 7.47 | 7.34
CO[C@@H](C)c1ncc(N2CCN(C)CC2)cc1-c1c2c3cc(c(F)cc3n1CC(F)(F)F)-c1csc(n1)C[C@H](NC(=O)[C@H](C(C)C)N(C)C(=O)[C@H]1CCN(C(=O)[C@H](F)Cl)C1)C(=O)N1CCC[C@H](N1)C(=O)OCC(C)(C)C2 (atropisomer, axis not shown; (M)) [Example 2, (3S)-1-[(2R)-2-chloro-2-fluoro-acetyl]-N-[(1S)-1-[[(7S,13S)-24-fluoro-(20M)-20-[2-[(1S)-1-methoxyethyl]-5-(4-methylpiperazin-1-yl)-3-pyridyl]-17,17-dimethyl-8,14-dioxo-21-(2,2,2-trifluoroethyl)-15-oxa-4-thia-9,21,27,28-tetrazapentacyclo[17.5.2.1^2,5.1^9,13.0^22,26]octacosa-1(25),2,5(28),19,22(26),23-hexaen-7-yl]carbamoyl]-2-methyl-propyl]-N-methyl-pyrrolidine-3-carboxamide] | 8.70 | 8.70 | 5.40 | 5.73 | 6.09 | 7.70 | 7.42 | 6.76 | 7.05
